PubChem BioAssay (NCI)
“And” between values parts separate entries of the source, which are not always exact repeats. Identical values can stand only once.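 Grown in 96-well plates, cells were treated for 48 hours with each compound at five concentrations. Insufficient inhibition: endpoint recorded as highest concentration tested. The concentration for 50% growth inhibition is given as GI50. TGI marks complete inhibition of growth.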

Key:
Experiment in all cases: DTP human tumour cell line panel, 48 h
[1] = system: SK-MEL-2 melanoma
[2] = system: NCI-H226 lung
[3] = system: OVCAR-8 ovarian
[4] = system: SK-MEL-5 melanoma
[5] = system: UACC-62 melanoma
[6] = system: HS 578T breast
[7] = system: KM12 colon
[8] = system: SNB-19 CNS
[9] = system: MDA-MB-435
[10] = system: NCI-H460 lung
[11] = system: T-47D breast
[12] = system: IGROV1 ovarian
[13] = system: SW-620 colon
[14] = system: HCC-2998 colon
[15] = system: OVCAR-5 ovarian
[16] = system: SF-295 CNS
[17] = system: CAKI-1 renal
[18] = system: EKVX NSCLC
[19] = system: DU-145 prostate
[20] = system: RXF 393 renal
[21] = system: TK-10 renal
[22] = system: HCT-116 colon
[23] = system: OVCAR-3 ovarian
[24] = system: LOX IMVI melanoma
[25] = system: SR leukemia
[26] = system: A549 NSCLC
[27] = system: SK-OV-3 ovarian
[28] = system: BT-549 breast
[29] = system: A498 renal
[30] = system: MOLT-4 leukemia
[31] = system: ACHN renal
[32] = system: HCT-15 colon
[33] = system: HL-60(TB) leukemia
[34] = system: NCI/ADR-RES ovarian
[35] = system: HOP-92 NSCLC
[36] = system: M14 melanoma
[37] = system: NCI-H522 lung
[38] = system: MCF7 breast
[39] = system: HOP-62 NSCLC
[40] = system: SNB-75 CNS
[41] = system: NCI-H23 lung
[42] = system: SN12C renal
[43] = system: SF-539 CNS
[44] = system: UACC-257 melanoma
[45] = system: HT29 colon
[46] = system: U251 CNS
[47] = system: SK-MEL-28 melanoma
[48] = system: K-562 leukemia
[49] = system: PC-3 prostate
[50] = system: MALME-3M melanoma
[51] = system: RPMI-8226 leukemia
[52] = system: SF-268 CNS
[53] = system: COLO 205 colon
[54] = system: OVCAR-4 ovarian
[55] = system: MDA-MB-231 breast
[56] = system: 786-0 renal
[57] = system: CCRF-CEM leukemia
[58] = system: UO-31 renal

O=C(NNc1nc2cc(F)cc(F)c2n2cccc12)c1cccnn1
GI50 [1]: 1.33 µM and 1.17 µM | TGI [1]: 19.8 µM and 26.2 µM | GI50 [2]: 0.341 µM and 0.799 µM | TGI [2]: 5.64 µM and 7.42 µM | GI50 [3]: 0.362 µM and 0.246 µM | TGI [3]: 30 µM and > 100 µM | GI50 [4]: 0.504 µM and 0.312 µM | TGI [4]: 4.95 µM and 2.39 µM | GI50 [5]: 0.305 µM and 0.329 µM | GI50 [6]: 3.79 µM and 1.13 µM | TGI [6]: 30 µM and 36.8 µM | GI50 [7]: 0.507 µM and 0.185 µM | TGI [7]: 30 µM and > 100 µM | GI50 [8]: 0.409 µM and 0.337 µM | GI50 [9]: 1.27 µM and 0.599 µM | TGI [9]: 30 µM and 15.8 µM | GI50 [10]: 0.147 µM and 0.061 µM | TGI [10]: 3.47 µM and 1.28 µM | GI50 [11]: 0.632 µM and 0.322 µM | TGI [11]: 11.3 µM and 4.18 µM | GI50 [12]: 0.21 µM and 0.211 µM | TGI [12]: 4.68 µM and 3.64 µM | GI50 [13]: 0.363 µM and 0.289 µM | TGI [13]: 21.1 µM and > 100 µM | GI50 [14]: 0.612 µM and 0.436 µM | TGI [14]: 11.3 µM and 18 µM | GI50 [15]: 0.847 µM and 1.39 µM | TGI [15]: 30 µM and 31.6 µM | GI50 [16]: 0.175 µM and 0.0735 µM | TGI [16]: 4.6 µM and 2.14 µM | GI50 [17]: 0.291 µM and 0.183 µM | TGI [17]: 4.96 µM and 5.28 µM | GI50 [18]: 0.35 µM and 0.164 µM | TGI [18]: 13.3 µM and 3.26 µM | GI50 [19]: 0.507 µM and 0.371 µM | TGI [19]: 6.23 µM and 4.08 µM | GI50 [20]: 0.865 µM and 0.242 µM | TGI [20]: 3.61 µM and 2.17 µM | GI50 [21]: 0.792 µM and 0.317 µM | TGI [21]: 20.8 µM and 11.3 µM | GI50 [22]: 0.151 µM | TGI [22]: 0.916 µM | GI50 [23]: 0.234 µM and 0.128 µM | TGI [23]: 5.19 µM and 10.7 µM | GI50 [24]: 0.295 µM | TGI [24]: 3.57 µM | GI50 [25]: 0.147 µM and 0.0431 µM | GI50 [26]: 0.378 µM and 0.215 µM | TGI [26]: 5.72 µM and 3.74 µM | GI50 [27]: 0.441 µM and 0.344 µM | TGI [27]: 6.48 µM and 6.7 µM | GI50 [28]: 0.52 µM and 0.291 µM | TGI [28]: 2.26 µM and 9.43 µM | GI50 [29]: 0.868 µM and 0.428 µM | TGI [29]: 4.85 µM and 3.08 µM | GI50 [30]: 0.186 µM and 0.167 µM | GI50 [31]: 0.164 µM and 0.165 µM | TGI [31]: 4.14 µM and 3.17 µM | GI50 [32]: 0.124 µM and 0.0483 µM | TGI [32]: 13.5 µM and > 100 µM | GI50 [33]: 0.765 µM and 0.259 µM | GI50 [34]: 0.27 µM and 0.161 µM | TGI [34]: 3.85 µM and 2.19 µM | GI50 [35]: 0.778 µM and 0.44 µM | TGI [35]: 8.79 µM and 5.34 µM | GI50 [36]: 0.164 µM and 0.179 µM | GI50 [37]: 0.89 µM and 0.254 µM | GI50 [38]: 0.453 µM and 0.26 µM | TGI [38]: 5.67 µM and 2.56 µM | GI50 [39]: 0.206 µM and 0.0677 µM | TGI [39]: 4.77 µM and 5.25 µM | TGI [40]: 17.9 µM and 7.79 µM | GI50 [41]: 0.575 µM | TGI [41]: > 100 µM | GI50 [42]: 0.5 µM and 0.554 µM | TGI [42]: 16.4 µM and 19.9 µM | GI50 [43]: 0.396 µM and 0.314 µM | TGI [43]: 3.87 µM and 3.35 µM | GI50 [44]: 0.868 µM and 0.395 µM | TGI [44]: 3.41 µM and 3.63 µM | GI50 [45]: 0.725 µM and 0.475 µM | TGI [45]: 30 µM and 27.2 µM | GI50 [46]: 0.241 µM and 0.113 µM | TGI [46]: 13.3 µM and 4.42 µM | GI50 [47]: 0.517 µM and 0.528 µM | TGI [47]: 12.5 µM and 21.6 µM | GI50 [48]: 0.817 µM and 0.263 µM | GI50 [49]: 0.478 µM and 0.296 µM | TGI [49]: 30 µM and > 100 µM | GI50 [50]: 0.784 µM and 1.02 µM | TGI [50]: 6.18 µM and 5.97 µM | GI50 [51]: 0.716 µM and 0.286 µM | TGI [51]: 30 µM and 3.06 µM | GI50 [52]: 0.359 µM and 0.209 µM | TGI [52]: 30 µM and 11.4 µM | GI50 [53]: 0.533 µM | TGI [53]: 5.06 µM | GI50 [54]: 0.212 µM | TGI [54]: 8.52 µM | GI50 [55]: 0.82 µM and 0.784 µM | TGI [55]: 10.3 µM and > 100 µM | GI50 [56]: 0.208 µM and 0.261 µM | TGI [56]: 2.46 µM and 6.24 µM | GI50 [57]: 0.163 µM and 0.0432 µM | GI50 [58]: 0.118 µM and 0.0519 µM | TGI [58]: 3.63 µM and 1.77 µM
